The text below walks through data of patent publication US10780074B2, “Compounds and uses thereof” (Sunovion Pharmaceuticals Inc., priority 2017, dated 2020).

Each structure is given as a SMILES string. Structures can show the parent of a compound that is named as a salt. Where two headings read alike, the source gives them in different places. Bounds are passed on as bounds.

For orientation: minimal effective dose means the smallest amount tested that counted as effective.

For the assay, the system named is behaviors of compound-treated mice. The assay is described as follows: Neuropharmacological Assay (SmartCube). It is filed as in vivo. The conditions noted are these: for minimal effective dose: Mus musculus, ip, 0.25 h, dose having 50% or more total activity in SmartCube, read-out: MED (minimal effective dose). In outline:
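Mice dosed i.p. 15 min before testing, with compound in N-methyl-2-pyrrolidone/PEG/propylene glycol, were video-recorded and algorithmically compared with reference-drug behavioral signatures. This gave class-match probabilities (antidepressant, anxiolytic, etc.) at the most efficacious of 3 doses. MED was defined as the dose with ≥50% total activity, usually tested across 0.3–30 mpk.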

[1] abbreviates: i.p. 15 min before behavioral test, most efficacious dose(s) of 3 doses.
The mark [2] stands for this setting: SmartCube, i.p. 15 min before test, most efficacious dose(s).

With `NCC1OCCc2c(-c3cnccn3)cccc21` (centres unmarked) [Compound 63, (5-(Pyrazin-2-yl)isochroman-1-yl)methanamine hydrochloride salt], the minimal effective dose (i.p.) was in the range of 3 to 10 mg/kg. Under setting [1], the “AD: ADHD (probability that activity matches class)” value (“AD: ADHD” for short) is given as “++ (5% ≤ ++ <25%)”, the “AG: analgesic (probability that activity matches class)” value (“AG: analgesic” for short) is “+ (LOQ ≤ + <5%)”, the “AX: anxiolytic (probability that activity matches class)” value (from here on “AX: anxiolytic”) is “++ (5% ≤ ++ <25%)” and the “CE: cognitive enhancer (probability that activity matches class)” value (shortened to “CE: cognitive enhancer”) was “+ (LOQ ≤ + <5%)”. Moreover, under setting [1], the “DP: anti-depressant (probability that activity matches class)” value (“DP: anti-depressant” below) is “++++ (50% ≤ ++++)”, the “MS: mood stabilizer (probability that activity matches class)” value (shortened to “MS: mood stabilizer”) was “+ (LOQ ≤ + <5%)”, the “PS: anti-psychotic (probability that activity matches class)” value (“PS: anti-psychotic” for short) is reported as “+ (LOQ ≤ + <5%)” and the “SD: sedative hypnotic (probability that activity matches class)” value (shortened to “SD: sedative hypnotic”) is “+ (LOQ ≤ + <5%)”. The “UN: uncharacterized CNS activity (probability that activity matches class)” value (shortened to “UN: uncharacterized CNS activity”) under setting [1] is given as “+ (LOQ ≤ + <5%)”.
For the compound `CNC[C@H]1OCCc2cc(-c3ncccn3)ccc21` [Compound 22, (S)—N-Methyl-1-(6-(pyrimidin-2-yl)isochroman-1-yl)methanamine hydrochloride salt], the minimal effective dose (i.p.) was 10 to 30 mg/kg. Under setting [1], the “AD: ADHD” value is “+ (LOQ ≤ + <5%)”, the “AG: analgesic” value is “++ (5% ≤ ++ <25%)”, the “AX: anxiolytic” value is given as “++ (5% ≤ ++ <25%)” and the “CE: cognitive enhancer” value was “++ (5% ≤ ++ <25%)”. Under setting [1], the “DP: anti-depressant” value was “++ (5% ≤ ++ <25%)”, the “MS: mood stabilizer” value was “+ (LOQ ≤ + <5%)”, the “PS: anti-psychotic” value is given as “+ (LOQ ≤ + <5%)” and the “SD: sedative hypnotic” value is listed as “+ (LOQ ≤ + <5%)”. Further, under setting [1], the “UN: uncharacterized CNS activity” value was “+++ (25% ≤ +++ <50%)”.
Turning to `NC[C@H]1OCCc2c(-c3ncco3)cccc21` [Compound 107, (S)-(5-(Oxazol-2-yl)isochroman-1-yl)methanamine hydrochloride salt], the minimal effective dose (i.p.) fell in the range of 10 to 30 mg/kg. Moreover, under setting [1], the “AD: ADHD” value is listed as “+ (LOQ ≤ + <5%)”, the “AG: analgesic” value is reported as “+ (LOQ ≤ + <5%)”, the “AX: anxiolytic” value was “+ (LOQ ≤ + <5%)” and the “CE: cognitive enhancer” value was “+ (LOQ ≤ + <5%)”. Besides, under setting [1], the “DP: anti-depressant” value is on record as “+++ (25% ≤ +++ <50%)”, the “MS: mood stabilizer” value is given as “+ (LOQ ≤ + <5%)”, the “PS: anti-psychotic” value was “+ (LOQ ≤ + <5%)” and the “SD: sedative hypnotic” value is given as “+ (LOQ ≤ + <5%)”. Under setting [1], the “UN: uncharacterized CNS activity” value is on record as “+ (LOQ ≤ + <5%)”.
In the case of `CNC[C@H]1OCCc2c(-c3ncc[nH]3)cccc21` [Compound 111, (S)-1-(5-(1H-Imidazol-2-yl)isochroman-1-yl)-N-methylmethanamine hydrochloride salt], the minimal effective dose (i.p.) was in the range of 10 to 30 mg/kg. Besides, under setting [1], the “AD: ADHD” value is reported as “+ (LOQ ≤ + <5%)”, the “AG: analgesic” value was “+ (LOQ ≤ + <5%)”, the “AX: anxiolytic” value is listed as “++ (5% ≤ ++ <25%)” and the “CE: cognitive enhancer” value was “+ (LOQ ≤ + <5%)”. Besides, under setting [1], the “DP: anti-depressant” value is “+ (LOQ ≤ + <5%)”, the “MS: mood stabilizer” value was “+ (LOQ ≤ + <5%)”, the “PS: anti-psychotic” value is “+ (LOQ ≤ + <5%)” and the “SD: sedative hypnotic” value is listed as “+ (LOQ ≤ + <5%)”. Under setting [1], the “UN: uncharacterized CNS activity” value is “+ (LOQ ≤ + <5%)”.
Turning to `CNC[C@H]1OCCc2c(-c3ccncn3)cccc21` (single isomer, unassigned) [Compound 73, hydrochloride salt], where the note is “i.p.”, the minimal effective dose was in the range of 3 to 10 mg/kg. Besides, under setting [1], the “AD: ADHD” value is recorded as “+ (LOQ ≤ + <5%)”, the “AG: analgesic” value is “+ (LOQ ≤ + <5%)”, the “AX: anxiolytic” value is given as “++ (5% ≤ ++ <25%)” and the “CE: cognitive enhancer” value is on record as “+ (LOQ ≤ + <5%)”. Besides, under setting [1], the “DP: anti-depressant” value is reported as “++++ (50% ≤ ++++)”, the “MS: mood stabilizer” value is listed as “+ (LOQ ≤ + <5%)”, the “PS: anti-psychotic” value is listed as “+ (LOQ ≤ + <5%)” and the “SD: sedative hypnotic” value is on record as “+ (LOQ ≤ + <5%)”. The “UN: uncharacterized CNS activity” value under setting [1] was “+ (LOQ ≤ + <5%)”.
With `NC[C@@H]1OCCc2c(-c3ccccc3)cccc21` (single isomer, unassigned) [Compound 130, hydrochloride salt], the minimal effective dose (i.p.) is 10 to 30 mg/kg. Under setting [1], the “AD: ADHD” value was “+ (LOQ ≤ + <5%)”, the “AG: analgesic” value is recorded as “+ (LOQ ≤ + <5%)”, the “AX: anxiolytic” value is recorded as “++ (5% ≤ ++ <25%)” and the “CE: cognitive enhancer” value is “+ (LOQ ≤ + <5%)”. Under setting [1], the “DP: anti-depressant” value is reported as “++ (5% ≤ ++ <25%)”, the “MS: mood stabilizer” value is “+ (LOQ ≤ + <5%)”, the “PS: anti-psychotic” value is listed as “+ (LOQ ≤ + <5%)” and the “SD: sedative hypnotic” value is “+ (LOQ ≤ + <5%)”. Besides, the “UN: uncharacterized CNS activity” value under setting [1] is on record as “+ (LOQ ≤ + <5%)”.
For `CNC[C@H]1OCCc2c(-c3cc(C)nc(C)c3)cccc21` [Compound 125, (S)-1-(5-(2,6-dimethylpyridin-4-yl)isochroman-1-yl)-N-methylmethanamine dihydrochloride], where the note is “i.p.”, the minimal effective dose is at most 3 mg/kg. Besides, under setting [1], the “AD: ADHD” value is “+ (LOQ ≤ + <5%)”, the “AG: analgesic” value is “+ (LOQ ≤ + <5%)”, the “AX: anxiolytic” value is on record as “+ (LOQ ≤ + <5%)” and the “CE: cognitive enhancer” value is “+ (LOQ ≤ + <5%)”. In addition, under setting [1], the “DP: anti-depressant” value is “++++ (50% ≤ ++++)”, the “MS: mood stabilizer” value is given as “+ (LOQ ≤ + <5%)”, the “PS: anti-psychotic” value is recorded as “+ (LOQ ≤ + <5%)” and the “SD: sedative hypnotic” value is reported as “+ (LOQ ≤ + <5%)”. The “UN: uncharacterized CNS activity” value under setting [1] is on record as “++++ (50% ≤ ++++)”.
For the compound `CNC[C@H]1OCCCc2c(-c3cncs3)cccc21` (single isomer, unassigned) [Compound 169, hydrochloride salt], where the note is “i.p.”, the minimal effective dose lay within 10 to 30 mg/kg. Besides, under setting [1], the “AD: ADHD” value is recorded as “+ (LOQ ≤ + <5%)”, the “AG: analgesic” value is reported as “+ (LOQ ≤ + <5%)”, the “AX: anxiolytic” value is reported as “+ (LOQ ≤ + <5%)” and the “CE: cognitive enhancer” value is “+ (LOQ ≤ + <5%)”. For the same compound, under setting [1], the “DP: anti-depressant” value was “+ (LOQ ≤ + <5%)”, the “MS: mood stabilizer” value is “+ (LOQ ≤ + <5%)”, the “PS: anti-psychotic” value is on record as “+ (LOQ ≤ + <5%)” and the “SD: sedative hypnotic” value is on record as “+ (LOQ ≤ + <5%)”. The “UN: uncharacterized CNS activity” value under setting [1] is “+ (LOQ ≤ + <5%)”.
For the compound `CNCC1OCCc2ccc(-c3ccncn3)cc21` (centres unmarked) [Compound 58, N-Methyl-1-(7-(pyrimidin-4-yl)isochroman-1-yl)methanamine hydrochloride salt], the minimal effective dose (i.p.) lay within 10 to 30 mg/kg. Further, under setting [1], the “AD: ADHD” value was “+ (LOQ ≤ + <5%)”, the “AG: analgesic” value is reported as “+ (LOQ ≤ + <5%)”, the “AX: anxiolytic” value is on record as “++ (5% ≤ ++ <25%)” and the “CE: cognitive enhancer” value is “+ (LOQ ≤ + <5%)”. Under setting [1], the “DP: anti-depressant” value is “+ (LOQ ≤ + <5%)”, the “MS: mood stabilizer” value is recorded as “+ (LOQ ≤ + <5%)”, the “PS: anti-psychotic” value was “+ (LOQ ≤ + <5%)” and the “SD: sedative hypnotic” value was “+ (LOQ ≤ + <5%)”. Further, under setting [1], the “UN: uncharacterized CNS activity” value was “++++ (50% ≤ ++++)”.
As for `NC[C@@H]1OCCc2c1cccc2-n1cccn1` [Compound 188, (R)-(5-(1H-pyrazol-1-yl)isochroman-1-yl)methanamine hydrochloride salt], the minimal effective dose is 10 to 30 mg/kg. Under setting [2], the “AD: ADHD” value is listed as “++ (5% ≤ ++ <25%)”, the “AG: analgesic” value is listed as “+ (LOQ ≤ + <5%)”, the “AX: anxiolytic” value is “++ (5% ≤ ++ <25%)” and the “CE: cognitive enhancer” value is “+ (LOQ ≤ + <5%)”. Also, under setting [2], the “DP: anti-depressant” value is listed as “+ (LOQ ≤ + <5%)”, the “MS: mood stabilizer” value was “+ (LOQ ≤ + <5%)”, the “PS: anti-psychotic” value is “+ (LOQ ≤ + <5%)” and the “SD: sedative hypnotic” value is “+ (LOQ ≤ + <5%)”. Moreover, the “UN: uncharacterized CNS activity” value under setting [2] is listed as “++++ (50% ≤ ++++)”.
`NC[C@H]1OCCc2c(-c3cccnc3)cccc21` [Compound 16, (S)-(5-(Pyridin-3-yl)isochroman-1-yl)methanamine hydrochloride]: under “i.p.”, the minimal effective dose was at most 3 mg/kg. For the same compound, under setting [1], the “AD: ADHD” value is on record as “+ (LOQ ≤ + <5%)”, the “AG: analgesic” value was “+ (LOQ ≤ + <5%)”, the “AX: anxiolytic” value is listed as “++ (5% ≤ ++ <25%)” and the “CE: cognitive enhancer” value is on record as “++ (5% ≤ ++ <25%)”. Also, under setting [1], the “DP: anti-depressant” value is “++++ (50% ≤ ++++)”, the “MS: mood stabilizer” value is given as “+ (LOQ ≤ + <5%)”, the “PS: anti-psychotic” value is recorded as “+ (LOQ ≤ + <5%)” and the “SD: sedative hypnotic” value is given as “+ (LOQ ≤ + <5%)”. Moreover, the “UN: uncharacterized CNS activity” value under setting [1] was “+ (LOQ ≤ + <5%)”.
